The values that follow are results of earlier work, collected in patent publication US12194002B2, “Compositions and methods to improve the therapeutic benefit of suboptimally administered chemical compounds including substituted hexitols such as dibromodulcitol” (priority 2011, dated 2025).

Series [1] concerns the target JAK2V617F mutant of the JAK2 tyrosine kinase (Homo sapiens, UniProt O60674, V617F).

Sequence of JAK2V617F mutant of the JAK2 tyrosine kinase (O60674 whole entry V617F): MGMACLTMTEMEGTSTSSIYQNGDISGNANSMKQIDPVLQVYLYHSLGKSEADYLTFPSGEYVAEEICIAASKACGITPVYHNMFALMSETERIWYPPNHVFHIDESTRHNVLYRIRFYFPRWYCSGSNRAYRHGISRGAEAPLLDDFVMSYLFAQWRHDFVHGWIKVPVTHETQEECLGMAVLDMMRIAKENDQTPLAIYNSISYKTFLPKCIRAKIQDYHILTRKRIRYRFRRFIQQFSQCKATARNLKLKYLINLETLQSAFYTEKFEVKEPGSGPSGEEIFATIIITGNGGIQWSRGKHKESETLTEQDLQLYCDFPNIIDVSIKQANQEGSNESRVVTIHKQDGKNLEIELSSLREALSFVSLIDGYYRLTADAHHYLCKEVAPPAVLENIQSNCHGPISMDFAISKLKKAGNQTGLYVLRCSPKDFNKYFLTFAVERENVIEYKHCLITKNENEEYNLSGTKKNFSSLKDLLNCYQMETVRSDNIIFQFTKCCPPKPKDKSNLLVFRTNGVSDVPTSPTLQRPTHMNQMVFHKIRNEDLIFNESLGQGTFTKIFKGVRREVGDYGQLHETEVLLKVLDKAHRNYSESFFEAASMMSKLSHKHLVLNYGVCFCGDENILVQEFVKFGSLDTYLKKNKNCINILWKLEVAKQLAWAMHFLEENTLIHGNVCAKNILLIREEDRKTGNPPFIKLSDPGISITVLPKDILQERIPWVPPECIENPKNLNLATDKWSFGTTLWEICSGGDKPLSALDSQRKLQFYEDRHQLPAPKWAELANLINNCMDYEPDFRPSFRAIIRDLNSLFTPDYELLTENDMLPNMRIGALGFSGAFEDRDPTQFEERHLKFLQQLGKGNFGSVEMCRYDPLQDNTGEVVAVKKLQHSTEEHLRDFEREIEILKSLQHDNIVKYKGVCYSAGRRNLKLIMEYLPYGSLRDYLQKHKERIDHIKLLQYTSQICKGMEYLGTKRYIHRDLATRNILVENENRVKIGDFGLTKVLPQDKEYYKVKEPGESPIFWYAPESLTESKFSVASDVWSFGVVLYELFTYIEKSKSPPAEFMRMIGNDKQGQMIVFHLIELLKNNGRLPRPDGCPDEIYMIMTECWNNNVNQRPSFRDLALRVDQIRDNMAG

For the molecule `O[C@H]([C@H](O)[C@@H](O)CBr)[C@H](O)CBr` [dibromodulcitol], the “Absorption by the oral route” value was “rapid and fairly complete”.

On to `C#Cc1cccc(Nc2ncnc3cc(OCCOC)c(OCCOC)cc23)c1` [Tarceva, N-(3-ethynylphenyl)-6,7-bis(2-methoxyethoxy)quinazolin-4-amine], for which, in series [1], the “Inhibition of JAK2V617F mutant” value is reported as “potent inhibitor”.
